According to patent US8691872B2 (Teva Pharmaceutical Industries Ltd., priority 2010, dated 2014):
Like-named read-outs stand apart in the source and are kept apart here.

Legend:
[1] = AZILECT; cited from earlier work
[2] = Protocol: As used herein, a “glass transition temperature (Tg)” of a solid is the temperature where the solid goes from a rigid state to a flexible state. At Tg, a polymer undergoes a phase transition from a hard, glass-like state to a flexible, rubber-like state. The Tg temperature values listed herein were determined based upon half-height of the step change or “S” shape curve seen in DSC data.
Dispersions were prepared using several techniques including rotary evaporation from solution, cryogrinding dry components and lyophilization. Samples were analyzed by modulated Differential Scanning calorimetry (DSC) to determine glass transition temperatures (Tg). A slight excess of citric acid was used in most dispersions i.e. 0.7:1 mol of rasagiline: citric acid.
In the following experiment, rasagiline base was mixed with citric acid (1:1 mol:mol) and then methanol was added to the mixture. After stirring and complete dissolution of solids, the solution was evaporated under vacuum in rotary evaporator at bath temperature 60° C.

[3] = Modulated DSC (MDSC), glass transition temperature (Tg); type: physicochemical; conditions: Table 1

C#CCN[C@@H]1CCc2ccccc21 [Rasagiline, R(+)-N-propargyl-1-aminoindan]
absolute bioavailability [1]: about 36%

C#CCN[C@@H]1CCc2ccccc21.O=C(O)CC(O)(CC(=O)O)C(=O)O [Sample 1, mono-rasagiline citrate]
Tg ([2]; by DSC): ~17 °C | Tg ([2]; cyclic DSC): Tg = 18 °C | Tg [3]: Tg = 16 °C
